# Values joined by “and” are separate entries in the source; they are usually repeats but may differ in a detail not shown here. Equal entries are not always repeated. Starred links: 1 amine or outer side, 2 acyl side, 3 side chain; linkers in the order of their positions; H or OH if unused. Non-standard residues stand in square brackets, D forms with d. No end group written: not given here. Benzoyl(5-NH,2-NO2) = O=C(c1cc(N[*:1])ccc1[N+](=O)[O-])[*:2]; 2Abz = Nc1ccccc1C(=O)O
# Columns and labels:
# Assay type in all cases: biochemical, human
# [1] = system: enzymatic (proteolytic) activity in urine from subjects diagnosed with uterine body cancer; assay: Hydrolysis of the chromogenic substrate in urine from subjects with uterine body cancer (absorbance at 405 nm); parameters: Results of absorbance analysis (rate of hydrolysis of the substrate): unit not given here; details: for Results of absorbance analysis (rate of hydrolysis of the substrate): 405 nm, 37° C., 60 minutes, Tris-HCl pH 8.0, triplicate
# Procedure: (§1) The activity of the novel compounds according to the invention was studied in a group of 20 subjects diagnosed with uterine body cancer using the representative compound according to the invention. […] The remaining compounds according to the invention are characterized by the analogous mechanism of action. For this purpose, the representative compound according to the invention, ABZ^1-Pro^2-Arg^3-Thr^4-Ile^5-ANB^6-NH2, was dissolved in dimethyl sulfoxide (at a concentration of 0.5 mg/mL) and then 50 μL of the solution was mixed with 120 μL of a buffer (200 mM Tris-HCl, pH 8.0) and 80 μL of urine from a subject suffering from uterine body cancer. The measurement was performed on a 96-well plate designed for measuring absorbance and each sample was analysed in triplicate at the temperature of 37° C. The duration of the measurement was 60 minutes. During the measurement, the wavelength characteristic for the chromophore (ANB-NH2) being released was monitored at the wavelength 405 nm (range 380-430 nm).
# The observed magnitude of increase in absorbance in time is different for each of the examined samples. […] Such a result may be due to the difference in the activity as well as the amount of enzymes responsible for the enzymatic cleavage (proteolysis). […] The result indicates the […] of proteolytic enzymes specific/characteristic of uterine body cancer.
# [2] = system: enzymatic (proteolytic) activity in urine from healthy subjects; assay: Hydrolysis of the chromogenic substrate in urine from healthy subjects (absorbance at 405 nm); details: for Results of absorbance analysis (rate of hydrolysis of the substrate): 405 nm, 37° C., 60 minutes, Tris-HCl pH 8.0, triplicate
# [3] = system: enzymatic activity in urine from patients with kidney cancer; assay: Selectivity of the cleavage: urine, kidney cancer; details: samples from patients with kidney cancer, mixture of 20 samples
# Excerpt: (§2) Arabic numerals indicate the numbers of given cancer types. The samples tested for each type of cancer were derived from 20 different patients for each of the tested cancers. The results are mean values for given cancer types.
# as §1
# (§3) Furthermore, the dependence of the cleavage selectivity of the substrate, i.e. the compound according to the invention, on the cancer being examined, was studied. […]
# [4] = system: enzymatic activity in urine from patients with lung cancer; assay: Selectivity of the cleavage: urine, lung cancer; details: samples from patients with lung cancer, mixture of 20 samples
# Excerpt: as §2, §1, §3
# [5] = system: enzymatic activity in urine from patients with prostate cancer; assay: Selectivity of the cleavage: urine, prostate cancer; details: samples from patients with prostate cancer, mixture of 20 samples
# Excerpt: as §2, §1, §3
# [6] = system: enzymatic activity in urine from patients with stomach cancer; assay: Selectivity of the cleavage: urine, stomach cancer; details: samples from patients with stomach cancer, mixture of 20 samples
# Excerpt: as §2, §1, §3
# [7] = system: enzymatic activity in urine from patients with pancreas cancer; assay: Selectivity of the cleavage: urine, pancreas cancer; details: samples from patients with pancreas cancer, mixture of 20 samples
# Excerpt: as §2, §1, §3
# [8] = system: enzymatic activity in urine from patients with ovary cancer; assay: Selectivity of the cleavage: urine, ovary cancer; details: samples from patients with ovary cancer, mixture of 20 samples
# Excerpt: as §2, §1, §3
# [9] = system: enzymatic activity in urine from patients with liver cancer; assay: Selectivity of the cleavage: urine, liver cancer; details: samples from patients with liver cancer, mixture of 20 samples
# Excerpt: as §2, §1, §3
# [10] = system: enzymatic activity in samples from patients with bladder cancer; assay: Selectivity of the cleavage: urine, bladder cancer; details: mixture of 20 samples
# Excerpt: as §2, §1, §3
# [11] = system: enzymatic activity in urine from a person diagnosed with uterine body cancer; assay: RP HPLC analysis of substrate cleavage in urine from a person with uterine body cancer; details: randomly selected urine from a person diagnosed with uterine body cancer
# [12] = system: enzyme(s) in the studied material (urine); assay: Dependence of the hydrolysis level of the substrate on pH; details: FIG. 4
# Procedure: Furthermore, measurements concerning the dependence of the proteolytic activity of the representative compound according to the invention on the reaction pH were performed.
substance,measurement,setting,value
"ABZ-Pro-Arg-Thr-Ile-ANB-NH2 ([2Abz]PRTI-{Benzoyl(5-NH,2-NO2)-NH2})",colour intensity of the solution (absorbance) over time,[1]; all urine samples from persons diagnosed with uterine body cancer (T1-T20),increased with time
same,Results of absorbance analysis (rate of hydrolysis of the substrate),"[1]; urine sample T1, uterine body cancer",0.0066 and 0.006 and 0.0065
same,Results of absorbance analysis (rate of hydrolysis of the substrate),"[1]; urine sample T2, uterine body cancer",0.052 and 0.042 and 0.051
same,Results of absorbance analysis (rate of hydrolysis of the substrate),"[1]; urine sample T3, uterine body cancer",0.0087 and 0.0088 and 0.0086
same,Results of absorbance analysis (rate of hydrolysis of the substrate),"[1]; urine sample T4, uterine body cancer",0.0069 and 0.0051 and 0.0067
same,Results of absorbance analysis (rate of hydrolysis of the substrate),"[1]; urine sample T5, uterine body cancer",0.044 and 0.038 and 0.042
same,Results of absorbance analysis (rate of hydrolysis of the substrate),"[1]; urine sample T6, uterine body cancer",0.037 and 0.022 and 0.028
same,Results of absorbance analysis (rate of hydrolysis of the substrate),"[1]; urine sample T8, uterine body cancer",0.014 and 0.022 and 0.015
same,Results of absorbance analysis (rate of hydrolysis of the substrate),"[1]; urine sample T9, uterine body cancer",0.0088 and 0.0101 and 0.0092
same,Results of absorbance analysis (rate of hydrolysis of the substrate),"[1]; urine sample T10, uterine body cancer",0.009 and 0.0093 and 0.0085
same,Results of absorbance analysis (rate of hydrolysis of the substrate),"[1]; urine sample T11, uterine body cancer",0.0123 and 0.0112 and 0.0145
same,Results of absorbance analysis (rate of hydrolysis of the substrate),"[1]; urine sample T12, uterine body cancer",0.0216 and 0.021 and 0.0199
same,Results of absorbance analysis (rate of hydrolysis of the substrate),"[1]; urine sample T13, uterine body cancer",0.0045 and 0.0052 and 0.0048
same,Results of absorbance analysis (rate of hydrolysis of the substrate),"[1]; urine sample T14, uterine body cancer",0.005 and 0.0061 and 0.0058
same,Results of absorbance analysis (rate of hydrolysis of the substrate),"[1]; urine sample T15, uterine body cancer",0.0017 and 0.0015 and 0.0021
same,Results of absorbance analysis (rate of hydrolysis of the substrate),"[1]; urine sample T16, uterine body cancer",0.0079 and 0.0084 and 0.0072
same,Results of absorbance analysis (rate of hydrolysis of the substrate),"[1]; urine sample T18, uterine body cancer",0.0073 and 0.0068 and 0.0075
same,Results of absorbance analysis (rate of hydrolysis of the substrate),"[1]; urine sample T19, uterine body cancer",0.055 and 0.051 and 0.048
same,Results of absorbance analysis (rate of hydrolysis of the substrate),"[1]; urine sample T20, uterine body cancer",0.0077 and 0.0075 and 0.0081
same,increase in absorbance within the diagnostic range,[2]; 20 urine samples from healthy subjects,no increase in absorbance
same,Results of absorbance analysis (rate of hydrolysis of the substrate),"[2]; urine sample 21, healthy subject",0.000000
same,Results of absorbance analysis (rate of hydrolysis of the substrate),"[2]; urine sample 22, healthy subject",0.000000
same,Results of absorbance analysis (rate of hydrolysis of the substrate),"[2]; urine sample 23, healthy subject",0.000000
same,Results of absorbance analysis (rate of hydrolysis of the substrate),"[2]; urine sample 24, healthy subject",0.000000
same,Results of absorbance analysis (rate of hydrolysis of the substrate),"[2]; urine sample 25, healthy subject",0.000000
same,Results of absorbance analysis (rate of hydrolysis of the substrate),"[2]; urine sample 26, healthy subject",0.000000
same,Results of absorbance analysis (rate of hydrolysis of the substrate),"[2]; urine sample 27, healthy subject",0.000000
same,Results of absorbance analysis (rate of hydrolysis of the substrate),"[2]; urine sample 28, healthy subject",0.000000
same,Results of absorbance analysis (rate of hydrolysis of the substrate),"[2]; urine sample 29, healthy subject",0.000000
same,Results of absorbance analysis (rate of hydrolysis of the substrate),"[2]; urine sample 30, healthy subject",0.000000
same,Results of absorbance analysis (rate of hydrolysis of the substrate),"[2]; urine sample 31, healthy subject",0.000000
same,Results of absorbance analysis (rate of hydrolysis of the substrate),"[2]; urine sample 32, healthy subject",0.000000
same,Results of absorbance analysis (rate of hydrolysis of the substrate),"[2]; urine sample 33, healthy subject",0.000000
same,Results of absorbance analysis (rate of hydrolysis of the substrate),"[2]; urine sample 34, healthy subject",0.000000
same,Results of absorbance analysis (rate of hydrolysis of the substrate),"[2]; urine sample 35, healthy subject",0.000000
same,Results of absorbance analysis (rate of hydrolysis of the substrate),"[2]; urine sample 36, healthy subject",0.000000
same,Results of absorbance analysis (rate of hydrolysis of the substrate),"[2]; urine sample 37, healthy subject",0.000000
same,Results of absorbance analysis (rate of hydrolysis of the substrate),"[2]; urine sample 38, healthy subject",0.000000
same,Results of absorbance analysis (rate of hydrolysis of the substrate),"[2]; urine sample 39, healthy subject",0.000000
same,Results of absorbance analysis (rate of hydrolysis of the substrate),"[2]; urine sample 40, healthy subject",0.000000
same,cleavage of the substrate / increase in absorbance,[3],is not subject to cleavage
same,cleavage of the substrate / increase in absorbance,[4],is not subject to cleavage
same,cleavage of the substrate / increase in absorbance,[5],is not subject to cleavage
same,cleavage of the substrate / increase in absorbance,[6],is not subject to cleavage
same,cleavage of the substrate / increase in absorbance,[7],is not subject to cleavage
same,cleavage of the substrate / increase in absorbance,[8],is not subject to cleavage
same,cleavage of the substrate / increase in absorbance,[9],is not subject to cleavage
same,cleavage of the substrate / increase in absorbance,[10],is not subject to cleavage
same,cleavage products of the substrate (RP HPLC),[11],cleaves into the peptide fragment ABZ-Pro-Arg-Thr-Ile-OH and the chromophore group of the compound (ANB-NH2)
same,dependence of the hydrolysis of the substrate on the reaction pH,[12],maximum activity at alkaline pH

# From patent US20250376711A1, “COMPOUND-DIAGNOSTIC MARKER FOR UTERINE BODY CANCER, METHOD FOR DETECTING ENZYMATIC ACTIVITY, METHOD FOR DIAGNOSIS OF UTERINE BODY CANCER, KIT COMPRISING THE COMPOUND, USES OF THE COMPOUND AND METHOD FOR THE TREATMENT OF UTERINE BODY CANCER” (URTESTE S.A., priority 2022, published 2025)
